Laboratory results: ChEMBL document CHEMBL5260810, “Inhibition of bromodomain-containing protein 9 for the prevention of epigenetically-defined drug resistance” (Bioorg Med Chem Lett, 2017)
pIC50: −log10 of the molar value.

Legend:
[1] = system: GB-1; assay: Cytotoxicity against human GB-1 cells measured after 8 days; assay type: functional, cell-based; settings: GB-1, 192 h
[2] = Cytotoxicity against human PK-8 cells measured after 8 days; assay type: functional, cell-based; settings: PK-8, 192 h
[3] = system: PEO1; assay: Cytotoxicity against human PEO1 cells measured after 8 days; assay type: functional, cell-based; settings: PEO1, 192 h
[4] = Cytotoxicity against human GCH-nu-YS cells measured after 8 days; assay type: functional, cell-based; settings: 192 h
[5] = system: SNB-19; assay: Cytotoxicity against human SNB-19 cells measured after 8 days; assay type: functional, cell-based; settings: SNB-19, 192 h
[6] = Cytotoxicity against human NCE-G 28T cells measured after 8 days; assay type: functional, cell-based; settings: 192 h
[7] = Cytotoxicity against human COLO 794 cells measured after 8 days; assay type: functional, cell-based; settings: COLO 794, 192 h
[8] = system: HepG2; assay: Cytotoxicity against human HepG2 cells measured after 8 days; assay type: functional, cell-based; settings: HepG2, 192 h
[9] = system: KYSE-180; assay: Cytotoxicity against human KYSE-180 cells measured after 8 days; assay type: functional, cell-based; settings: KYSE-180, 192 h
[10] = Cytotoxicity against human BICR 10 cells measured after 8 days; assay type: functional, cell-based; settings: BICR 10, 192 h
[11] = Cytotoxicity against mouse ID8 cells measured after 8 days; assay type: functional, cell-based; settings: ID8, 192 h
[12] = system: Hs 695T; assay: Cytotoxicity against human Hs 695T cells measured after 8 days; assay type: functional, cell-based; settings: 192 h
[13] = system: 8505C; assay: Cytotoxicity against human 8505C cells measured after 8 days; assay type: functional, cell-based; settings: 192 h
[14] = Cytotoxicity against human OVSAHO cells measured after 8 days; assay type: functional, cell-based; settings: 192 h
[15] = system: ASPC1; assay: Cytotoxicity against human ASPC1 cells measured after 8 days; assay type: functional, cell-based; settings: ASPC1, 192 h
[16] = system: HCT-8; assay: Cytotoxicity against human HCT-8 cells measured after 8 days; assay type: functional, cell-based; settings: HCT-8, 192 h
[17] = system: CCF-STTG1; assay: Cytotoxicity against human CCF-STTG1 cells measured after 8 days; assay type: functional, cell-based; settings: CCF-STTG1, 192 h
[18] = system: LN-18; assay: Cytotoxicity against human LN-18 cells measured after 8 days; assay type: functional, cell-based; settings: LN-18, 192 h
[19] = Cytotoxicity against human RERF-LC-KJ cells measured after 8 days; assay type: functional, cell-based; settings: 192 h
[20] = system: NCI-H417; assay: Cytotoxicity against human NCI-H417 cells measured after 8 days; assay type: functional, cell-based; settings: NCI-H417, 192 h
[21] = Cytotoxicity against human KPR3351 cells measured after 8 days; assay type: functional, cell-based; settings: KPR3351, 192 h
[22] = Cytotoxicity against mouse FOX-NY cells measured after 8 days; assay type: functional, cell-based; settings: 192 h
[23] = Cytotoxicity against human COLO 857 cells measured after 8 days; assay type: functional, cell-based; settings: COLO 857, 192 h
[24] = system: B16-F10; assay: Cytotoxicity against mouse B16-F10 Luciferase cells measured after 8 days; assay type: functional, cell-based; settings: B16-F10, 192 h
[25] = system: TK-10; assay: Cytotoxicity against human TK-10 cells measured after 8 days; assay type: functional, cell-based; settings: TK-10, 192 h
[26] = system: A2058; assay: Cytotoxicity against human A2058 cells measured after 8 days; assay type: functional, cell-based; settings: A2058, 192 h
[27] = system: NCI-H2052; assay: Cytotoxicity against human NCI-H2052 cells measured after 8 days; assay type: functional, cell-based; settings: NCI-H2052, 192 h
[28] = Cytotoxicity against human KNS-81 cells measured after 8 days; assay type: functional, cell-based; settings: KNS-81, 192 h
[29] = Cytotoxicity against human KHM-5M cells measured after 8 days; assay type: functional, cell-based; settings: 192 h
[30] = system: HuP-T3; assay: Cytotoxicity against human HuP-T3 cells measured after 8 days; assay type: functional, cell-based; settings: HuP-T3, 192 h
[31] = Cytotoxicity against human COV434 cells measured after 8 days; assay type: functional, cell-based; settings: COV434, 192 h
[32] = Cytotoxicity against human Panc 05.04 cells measured after 8 days; assay type: functional, cell-based; settings: Panc 05.04, 192 h
[33] = system: Ishikawa; assay: Cytotoxicity against human Ishikawa cells measured after 8 days; assay type: functional, cell-based; settings: 192 h
[34] = Cytotoxicity against human HCC597 cells measured after 8 days; assay type: functional, cell-based; settings: HCC597, 192 h
[35] = Cytotoxicity against human KMRC-1 cells measured after 8 days; assay type: functional, cell-based; settings: KMRC-1, 192 h
[36] = Cytotoxicity against human KMRC-20 cells measured after 8 days; assay type: functional, cell-based; settings: KMRC-20, 192 h
[37] = system: Malme-3M; assay: Cytotoxicity against human Malme-3M cells measured after 8 days; assay type: functional, cell-based; settings: 192 h
[38] = Cytotoxicity against human HCC89 cells measured after 8 days; assay type: functional, cell-based; settings: HCC89, 192 h
[39] = system: HEC-1-A; assay: Cytotoxicity against human HEC-1-A cells measured after 8 days; assay type: functional, cell-based; settings: 192 h
[40] = Cytotoxicity against human HCC850 cells measured after 8 days; assay type: functional, cell-based; settings: HCC850, 192 h
[41] = system: KG-1; assay: Cytotoxicity against human KG-1 cells measured after 8 days; assay type: functional, cell-based; settings: KG-1, 192 h
[42] = Cytotoxicity against human C32TG cells measured after 8 days; assay type: functional, cell-based; settings: 192 h
[43] = system: KYSE-270; assay: Cytotoxicity against human KYSE-270 cells measured after 8 days; assay type: functional, cell-based; settings: KYSE-270, 192 h
[44] = system: IPC-298; assay: Cytotoxicity against human IPC-298 cells measured after 8 days; assay type: functional, cell-based; settings: IPC-298, 192 h
[45] = Cytotoxicity against human KATO III stomach cancer cell line measured after 8 days; assay type: functional, cell-based; settings: 192 h
[46] = system: DOHH-2; assay: Cytotoxicity against human DOHH-2 cells measured after 8 days; assay type: functional, cell-based; settings: DOHH-2, 192 h
[47] = system: SF-539; assay: Cytotoxicity against human SF-539 cells measured after 8 days; assay type: functional, cell-based; settings: SF-539, 192 h
[48] = system: SNU-182; assay: Cytotoxicity against human SNU-182 cells measured after 8 days; assay type: functional, cell-based; settings: SNU-182, 192 h
[49] = Cytotoxicity against human Panc 04.03 cells measured after 8 days; assay type: functional, cell-based; settings: Panc 04.03, 192 h
[50] = system: Hs 766; assay: Cytotoxicity against human Hs 766 cells measured after 8 days; assay type: functional, cell-based; settings: Hs 766, 192 h
[51] = Cytotoxicity against human COV362.4 cells measured after 8 days; assay type: functional, cell-based; settings: COV362.4, 192 h
[52] = system: AM-38; assay: Cytotoxicity against human AM-38 cells measured after 8 days; assay type: functional, cell-based; settings: AM-38, 192 h
[53] = system: TOV112D; assay: Cytotoxicity against human TOV112D cells measured after 8 days; assay type: functional, cell-based; settings: 192 h
[54] = Cytotoxicity against human BM-1604 cells measured after 8 days; assay type: functional, cell-based; settings: BM-1604, 192 h
[55] = system: COLO-829; assay: Cytotoxicity against human COLO-829 cells measured after 8 days; assay type: functional, cell-based; settings: COLO-829, 192 h
[56] = system: CAL-54; assay: Cytotoxicity against human CAL-54 cells measured after 8 days; assay type: functional, cell-based; settings: CAL-54, 192 h
[57] = system: C32; assay: Cytotoxicity against human C32 cells measured after 8 days; assay type: functional, cell-based; settings: C32, 192 h
[58] = Cytotoxicity against human GOS-3 cells measured after 8 days; assay type: functional, cell-based; settings: GOS-3, 192 h
[59] = Cytotoxicity against human U-87 MG cells measured after 8 days; assay type: functional, cell-based, U-87MG ATCC; settings: 192 h
[60] = Cytotoxicity against human NCE-G 84 cells measured after 8 days; assay type: functional, cell-based; settings: NCE-G 84, 192 h
[61] = system: PANC-03-27; assay: Cytotoxicity against human Panc 03.27 cells measured after 8 days; assay type: functional, cell-based; settings: PANC-03-27, 192 h
[62] = system: G-361; assay: Cytotoxicity against human G-361 cells measured after 8 days; assay type: functional, cell-based; settings: G-361, 192 h
[63] = system: KLE; assay: Cytotoxicity against human KLE cells measured after 8 days; assay type: functional, cell-based; settings: 192 h

C/C=C/Cn1cc(-c2ccc(C(C)(C)O)cc2OC)c2cc[nH]c2c1=O
pIC50 [1]: 4.70 | pIC50 [2]: 4.70 | pIC50 [3]: 4.70 | pIC50 [4]: 4.70 | pIC50 [5]: 4.70 | pIC50 [6]: 4.70 | pIC50 [7]: 4.70 | pIC50 [8]: 4.70 | pIC50 [9]: 4.70 | pIC50 [10]: 4.70 | pIC50 [11]: 4.70 | pIC50 [12]: 4.70 | pIC50 [13]: 4.70 | pIC50 [14]: 4.70 | pIC50 [15]: 4.70 | pIC50 [16]: 4.70 | pIC50 [17]: 4.70 | pIC50 [18]: 4.86 | pIC50 [19]: 4.70 | pIC50 [20]: 4.70 | pIC50 [21]: 4.70 | pIC50 [22]: 4.70 | pIC50 [23]: 4.70 | pIC50 [24]: 4.70 | pIC50 [25]: 4.70 | pIC50 [26]: 4.70 | pIC50 [27]: 4.70 | pIC50 [28]: 4.70 | pIC50 [29]: 4.70 | pIC50 [30]: 4.85 | pIC50 [31]: 4.70 | pIC50 [32]: 4.70 | pIC50 [33]: 4.70 | pIC50 [34]: 4.70 | pIC50 [35]: 4.70 | pIC50 [36]: 4.70 | pIC50 [37]: 4.70 | pIC50 [38]: 4.70 | pIC50 [39]: 4.70 | pIC50 [40]: 4.70 | pIC50 [41]: 4.70 | pIC50 [42]: 4.70 | pIC50 [43]: 4.70 | pIC50 [44]: 4.70 | pIC50 [45]: 4.70 | pIC50 [46]: 4.97 | pIC50 [47]: 4.70 | pIC50 [48]: 4.70 | pIC50 [49]: 4.70 | pIC50 [50]: 4.70 | pIC50 [51]: 4.70 | pIC50 [52]: 4.70 | pIC50 [53]: 4.70 | pIC50 [54]: 4.70 | pIC50 [55]: 4.70 | pIC50 [56]: 4.70 | pIC50 [57]: 4.70 | pIC50 [58]: 4.70 | pIC50 [59]: 4.70 | pIC50 [60]: 4.70 | pIC50 [61]: 4.70 | pIC50 [62]: 4.70 | pIC50 [63]: 4.70

C/C=C/Cn1cc(-c2ccc(C(=O)N3CCOCC3)cc2)c2cc[nH]c2c1=O
pIC50 [1]: 4.70 | pIC50 [2]: 4.70 | pIC50 [3]: 4.70 | pIC50 [4]: 4.70 | pIC50 [5]: 4.70 | pIC50 [6]: 4.70 | pIC50 [7]: 4.70 | pIC50 [8]: 4.70 | pIC50 [9]: 4.70 | pIC50 [10]: 4.70 | pIC50 [11]: 4.70 | pIC50 [12]: 4.70 | pIC50 [13]: 4.70 | pIC50 [14]: 4.70 | pIC50 [15]: 4.70 | pIC50 [16]: 4.70 | pIC50 [17]: 4.70 | pIC50 [18]: 4.70 | pIC50 [19]: 4.70 | pIC50 [20]: 4.70 | pIC50 [21]: 4.70 | pIC50 [22]: 4.92 | pIC50 [23]: 4.70 | pIC50 [24]: 4.70 | pIC50 [25]: 4.70 | pIC50 [26]: 4.70 | pIC50 [27]: 4.70 | pIC50 [28]: 4.70 | pIC50 [29]: 4.70 | pIC50 [30]: 4.70 | pIC50 [31]: 4.70 | pIC50 [32]: 4.70 | pIC50 [33]: 4.70 | pIC50 [34]: 4.70 | pIC50 [35]: 4.70 | pIC50 [36]: 4.70 | pIC50 [37]: 4.70 | pIC50 [38]: 4.70 | pIC50 [39]: 4.70 | pIC50 [40]: 4.70 | pIC50 [41]: 4.70 | pIC50 [42]: 4.70 | pIC50 [43]: 4.70 | pIC50 [44]: 4.73 | pIC50 [45]: 4.70 | pIC50 [46]: 4.79 | pIC50 [47]: 4.70 | pIC50 [48]: 4.70 | pIC50 [49]: 4.70 | pIC50 [50]: 4.70 | pIC50 [51]: 4.70 | pIC50 [52]: 4.70 | pIC50 [53]: 4.70 | pIC50 [54]: 4.70 | pIC50 [55]: 4.70 | pIC50 [56]: 4.70 | pIC50 [57]: 4.70 | pIC50 [58]: 4.70 | pIC50 [59]: 4.70 | pIC50 [60]: 4.70 | pIC50 [61]: 4.70 | pIC50 [62]: 4.70 | pIC50 [63]: 4.70
